Where two headings read alike, the source gives them in different places.
Columns and labels:
KKA^y mice [1] = assay: Blood glucose and blood lipid (triglyceride) lowering action in mice; type: in vivo; settings: Mus musculus, po, 96 h, 4 days, non-administration group = 100%; for inhibition in vivo at 0.005 %: 0.005% in powder diet; for inhibition in vivo at 0.01 %: 0.01% in powder diet (compound of Example 105)
Description: The test compound was mixed with a powder diet (CE-2, CLEA JAPAN, INC.) at a proportion of 0.005% (0.01% for the compound of Example 105) and freely given to KKA^y mice (9 to 12-week-old, 5 mice per group) which are obesity-insulin independent diabetes mellitus (type-2 diabetes) models, for 4 days. During this period, water was freely given. The blood was drawn from the orbital venous plexus. Glucose and triglyceride in the plasma separated from the blood were quantitated using L Type Wako Glu2 (Wako Pure Chemical Industries, Ltd.) and L Type Wako TG•H (Wako Pure Chemical Industries, Ltd.), respectively, according to an enzyme method.

PPARγ-RXRα heterodimer = target: T1, PPARγ-RXRα heterodimer (Homo sapiens, UniProt P37231); assay: PPARγ-RXRα heterodimer ligand activity (luciferase reporter); type: cell-based; settings: PPARγ:RXRα:4ERPP/CHO-K1 cells, 18-24 hr, concentration showing 50% of the maximum induction rate
T1 construct: expressed in transfected cells; host or cells: CHO-K1
T1 sequence (P37231 1-505): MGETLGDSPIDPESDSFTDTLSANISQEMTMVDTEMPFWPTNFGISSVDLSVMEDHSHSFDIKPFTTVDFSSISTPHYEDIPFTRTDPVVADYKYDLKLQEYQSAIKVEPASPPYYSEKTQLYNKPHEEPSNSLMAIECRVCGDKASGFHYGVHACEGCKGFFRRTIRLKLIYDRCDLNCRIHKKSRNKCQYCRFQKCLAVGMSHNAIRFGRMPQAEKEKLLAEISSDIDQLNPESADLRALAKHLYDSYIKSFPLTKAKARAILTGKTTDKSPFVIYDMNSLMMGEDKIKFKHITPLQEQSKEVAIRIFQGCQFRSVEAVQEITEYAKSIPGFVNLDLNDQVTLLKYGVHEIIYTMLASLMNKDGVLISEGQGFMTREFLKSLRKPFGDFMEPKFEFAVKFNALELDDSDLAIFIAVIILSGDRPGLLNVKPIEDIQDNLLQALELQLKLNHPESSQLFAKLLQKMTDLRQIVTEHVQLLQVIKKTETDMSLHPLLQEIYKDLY
T1 sequence (P19793 1-462 partner): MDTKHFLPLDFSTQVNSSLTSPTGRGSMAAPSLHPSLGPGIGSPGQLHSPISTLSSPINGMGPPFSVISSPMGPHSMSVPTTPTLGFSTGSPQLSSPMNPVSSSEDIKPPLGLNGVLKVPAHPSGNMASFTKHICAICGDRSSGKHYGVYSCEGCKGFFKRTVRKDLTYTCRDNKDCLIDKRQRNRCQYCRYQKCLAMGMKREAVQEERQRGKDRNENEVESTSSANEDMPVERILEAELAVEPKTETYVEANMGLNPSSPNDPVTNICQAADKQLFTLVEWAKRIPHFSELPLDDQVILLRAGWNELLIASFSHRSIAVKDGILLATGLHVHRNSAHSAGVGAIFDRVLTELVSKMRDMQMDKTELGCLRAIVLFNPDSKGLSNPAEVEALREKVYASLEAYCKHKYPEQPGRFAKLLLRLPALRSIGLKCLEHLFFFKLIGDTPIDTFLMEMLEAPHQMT
In short: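 CHO-K1 cells carrying PPARγ, RXRα and a 4ERPP luciferase reporter, exposed to compound 18–24 h at 37 °C in Ham F12 with 0.1% fatty acid-free BSA. Luciferase induction expressed relative to untreated cells (= 1). EC50 is concentration giving 50% of maximal induction.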

PPARδ-RXRα heterodimer = target: T2, PPARδ-RXRα heterodimer (Homo sapiens, UniProt Q03181); assay: PPARδ-RXRα heterodimer ligand activity (luciferase reporter); type: cell-based; settings: transformant of Reference Example 9a of WO03/099793, 36-48 hr, concentration showing 50% of the maximum induction rate
T2 construct: expressed in transfected cells
T2 sequence (Q03181 1-441): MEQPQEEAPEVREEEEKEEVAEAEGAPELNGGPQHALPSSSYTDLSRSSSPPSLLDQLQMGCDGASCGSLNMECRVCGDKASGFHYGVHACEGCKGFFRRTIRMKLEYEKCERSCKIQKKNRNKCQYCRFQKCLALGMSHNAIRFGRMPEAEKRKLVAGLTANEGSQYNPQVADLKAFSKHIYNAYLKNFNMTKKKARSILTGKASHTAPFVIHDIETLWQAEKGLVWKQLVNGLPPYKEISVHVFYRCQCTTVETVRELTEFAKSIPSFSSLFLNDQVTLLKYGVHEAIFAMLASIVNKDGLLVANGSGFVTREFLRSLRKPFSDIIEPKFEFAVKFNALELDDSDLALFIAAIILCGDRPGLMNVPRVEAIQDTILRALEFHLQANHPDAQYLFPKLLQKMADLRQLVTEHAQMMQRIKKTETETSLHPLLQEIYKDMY
T2 sequence (P19793 1-462 partner): T1 sequence (P19793 1-462 partner)

KKA^y mice [2] = assay: Plasma antiatherogenic index increasing action in mice; type: in vivo; settings: Mus musculus, po, 96 h, 4 days, increase rate of (HDL cholesterol/total cholesterol)×100, non-administration group = 100%; for change in vivo at 0.005 %: 0.005% in powder diet
Method: The test compound was mixed with a powder diet (CE-2, CLEA JAPAN, INC.) at a proportion of 0.005% (0.01% for the compound of Example 105) and freely given to KKA^y mice (9 to 12-week-old, 5 mice per group) which are obesity-insulin independent diabetes mellitus (type-2 diabetes) models, for 4 days. During this period, water was freely given. The blood was drawn from fundus and the components were measured using the plasma separated from the blood. The total cholesterol was quantified using L Type Wako cholesterol (Wako Pure Chemical Industries, Ltd.). In addition, an HDL cholesterol precipitation reagent (Wako Pure Chemical Industries, Ltd.) was added to a part of the plasma to allow precipitation of a non-HDL lipoprotein, and the cholesterol (HDL cholesterol) of the supernatant was measured. The plasma antiatherogenic index [(HDL cholesterol/total cholesterol)×100] was calculated from these cholesterol values.

[3] = lowering rate of plasma glucose, read-out: hypoglycemic action (%)
[4] = lowering rate of plasma triglyceride, read-out: hypolipidemic action (%)

Row | SMILES | inhibition in vivo at 0.005 % (KKA^y mice [1]; [3]) | inhibition in vivo at 0.005 % (KKA^y mice [1]; [4]) | EC50 (PPARγ-RXRα heterodimer) | EC50 (PPARδ-RXRα heterodimer) | change in vivo at 0.005 % (KKA^y mice [2]) | melting point | inhibition in vivo at 0.01 % (KKA^y mice [1]; [3]) | inhibition in vivo at 0.01 % (KKA^y mice [1]; [4]) | change in vivo at 0.01 % (KKA^y mice [2]; 0.01% in powder diet (compound of Example 105))
1 | COc1cccc(CC(=O)O)c1OCCCc1cc(OC(C)C)nn1Cc1ccc(Cl)cc1Cl [Example 16, (2-{3-[1-(2,4-dichlorobenzyl)-3-isopropoxy-1H-pyrazol-5-yl]propoxy}-3-methoxyphenyl)acetic acid] | 57% | 28% | 2.3 nM | 14 nM | 13% | – | – | – | –
2 | CCn1cc(CC(=O)O)c(OCCCc2cc(OC(C)C)nn2Cc2ccc(Cl)cc2Cl)n1 [Example 22, (3-{3-[1-(2,4-dichlorobenzyl)-3-isopropoxy-1H-pyrazol-5-yl]propoxy}-1-ethyl-1H-pyrazol-4-yl)acetic acid] | 49% | 53% | 15 nM | – | 12% | – | – | – | –
3 | COc1cccc(CC(=O)O)c1OCCCc1cc(OC(C)C)nn1Cc1ccc(C(F)(F)F)cc1 [Example 51, [2-(3-{3-isopropoxy-1-[4-(trifluoromethyl)benzyl]-1H-pyrazol-5-yl}propoxy)-3-methoxyphenyl]acetic acid] | – | – | 39 nM | – | 15% | 116 to 117 °C | – | – | –
4 | CCCOc1cc(CCCOc2c(CC(=O)O)cccc2OC)n(Cc2ccc(Cl)cc2Cl)n1 [Example 57, (2-{3-[1-(2,4-dichlorobenzyl)-3-propoxy-1H-pyrazol-5-yl]propoxy}-3-methoxyphenyl)acetic acid] | – | – | 1.4 nM | 21 nM | 15% | – | – | – | –
5 | COc1ccccc1Cn1nc(OC(C)C)cc1CCCOc1c(CC(=O)O)cccc1OC [Example 62, (2-{3-[3-isopropoxy-1-(2-methoxybenzyl)-1H-pyrazol-5-yl]propoxy}-3-methoxyphenyl)acetic acid] | 48% | 61% | 34 nM | – | 13% | – | – | – | –
6 | COCOc1ccc(CCCOc2c(CC(=O)O)cccc2OC)c(Oc2ccc(C(F)(F)F)cn2)c1 [Example 105, {3-methoxy-2-[3-(4-(methoxymethoxy)-2-{[5-(trifluoromethyl)pyridin-2-yl]oxy}phenyl)propoxy]phenyl}acetic acid] | – | – | – | – | – | – | 64% | 64% | 13%
7 | CCn1cc(CC(=O)O)c(OCCCc2ccc(OC(C)C)cc2Oc2ccc(C(F)(F)F)cn2)n1 [Example 108, {1-ethyl-3-[3-(4-isopropoxy-2-{[5-(trifluoromethyl)pyridin-2-yl]oxy}phenyl)propoxy]-1H-pyrazol-4-yl}acetic acid] | – | – | – | – | 12% | – | – | – | –
8 | COCOc1ccc(CCCOc2nn(C)cc2CC(=O)O)c(Oc2ncc(C(F)(F)F)cc2Cl)c1 [Example 111, (3-{3-[2-{[3-chloro-5-(trifluoromethyl)pyridin-2-yl]oxy}-4-(methoxymethoxy)phenyl]propoxy}-1-methyl-1H-pyrazol-4-yl)acetic acid] | 64% | 45% | 3.8 nM | 77 nM | 11% | 122 to 123 °C | – | – | –

Reference: patent US20080051418A1, “Arylalkanoic Acid Derivative” (priority 2004, published 2008)
